From US7364874B2, “Mediucm for detecting Van A and Van B vancomycin-resistant entercocci and method of using the same” (priority 2001, dated 2008)
≈ marks a conversion by molar mass, not a printed value. Read-outs that look alike come from different tables or passages of the source.

Experiments:
Van A VRE [1] = settings: carries van A gene; cited from earlier work
Van B VRE [2] = settings: carries van B gene; cited from earlier work
Van C VRE = settings: cited from earlier work
Van D VRE = settings: cited from earlier work
Van E VRE = settings: cited from earlier work
Van G VRE = settings: cited from earlier work
Van A VRE [3] = experiment: microbe, parasite or virus in culture; type: cell-based, E. faecium; settings: Enterococcus, read-out: vancomycin MIC
Van B VRE [4] = experiment: microbe, parasite or virus in culture; type: cell-based, E. faecium, E. faecalis; settings: Enterococcus, read-out: vancomycin MIC
[5] = system: Van C type, Enterococcus casseliflavus; experiment: Test Example 2: vancomycin MIC changes when D-lactic acid (DL-sodium lactate) is added (checkerboard method); type: cell-based
[6] = system: Van C type, Enterococcus gallinarum; experiment: as above; type: cell-based
Van A VRE [7] = experiment: as above; type: cell-based, E. faecium
Van B VRE [8] = experiment: as above; type: cell-based, E. faecium, E. faecalis
[9] = system: Van C type, Enterococcus casseliflavus; experiment: microbe, parasite or virus in culture; settings: read-out: vancomycin MIC, with addition of D-cycloserine, all strains of the group
[10] = system: Van C type, Enterococcus gallinarum; experiment: microbe, parasite or virus in culture; settings: read-out: vancomycin MIC, with addition of D-cycloserine, all strains of the group
[11] = system: Enterococcus faecalis that does not carry vancomycine resistance genes (incl. ATCC29212); experiment: Test Example 2: vancomycin MIC changes when D-lactic acid (DL-sodium lactate) is added (checkerboard method); type: cell-based; settings: DL-sodium lactate 0.025-[…]
[12] = system: Enterococcus faecium that does not carry vancomycine resistance genes; experiment: as above; type: cell-based; settings: DL-sodium lactate 0.025-[…]
[13] = system: Enterococcus avium that does not carry vancomycine resistance genes; experiment: as above; type: cell-based; settings: DL-sodium lactate 0.025-[…]
[14] = Enterococcus, VRE, read-out: vancomycin MIC

teicoplanin
minimum inhibitory concentration (MIC) (Van A VRE [1]): 16 to 512 µg/mL
minimum inhibitory concentration (MIC) (Van B VRE [2]): 0.5 to 1 µg/mL
minimum inhibitory concentration (MIC) (Van C VRE; carries van C gene): 0.5 to 1 µg/mL
minimum inhibitory concentration (MIC) (Van D VRE; carries van D gene): 4 to 1024 µg/mL
minimum inhibitory concentration (MIC) (Van E VRE; carries van E gene): 0.5 µg/mL
minimum inhibitory concentration (MIC) (Van G VRE; carries van G gene): 0.5 µg/mL

CN[C@H](CC(C)C)C(=O)N[C@H]1C(=O)N[C@@H](CC(N)=O)C(=O)N[C@H]2C(=O)N[C@H]3C(=O)N[C@H](C(=O)N[C@H](C(=O)O)c4cc(O)cc(O)c4-c4cc3ccc4O)[C@H](O)c3ccc(c(Cl)c3)Oc3cc2cc(c3O[C@@H]2O[C@H](CO)[C@@H](O)[C@H](O)[C@H]2O[C@H]2C[C@](C)(N)[C@H](O)[C@H](C)O2)Oc2ccc(cc2Cl)[C@H]1O [vancomycin]
MIC (Van A VRE [3]): > 32 µg/mL
MIC (Van B VRE [4]): > 32 µg/mL
MIC ([5]; Enterococcus casseliflavus, read-out: vancomycin MIC, with addition of DL-sodium lactate, all strains of the group): < 32 µg/mL
MIC ([6]; Enterococcus gallinarum, GALLINARUM, read-out: vancomycin MIC, with addition of DL-sodium lactate, all strains of the group): < 32 µg/mL
MIC (Van A VRE [7]; [14]): > 32 µg/mL
MIC (Van B VRE [8]; [14]): > 32 µg/mL
minimum inhibitory concentration (MIC) (Van C VRE): 2 to 32 µg/mL
minimum inhibitory concentration (MIC) (Van D VRE): 64 to 1024 µg/mL
minimum inhibitory concentration (MIC) (Van E VRE): 16 µg/mL (≈ 11 µM)
minimum inhibitory concentration (MIC) (Van G VRE): 12 to 16 µg/mL
MIC [9]: < 32 µg/mL
MIC [10]: < 32 µg/mL

CC(O)C(=O)[O-].[Na+] (racemic) [DL-sodium lactate]
effect of the addition of DL-sodium lactate on the vancomycin MIC [11]: did not change the vancomycin MIC
effect of the addition of DL-sodium lactate on the vancomycin MIC [12]: did not change the vancomycin MIC
effect of the addition of DL-sodium lactate on the vancomycin MIC [13]: did not change the vancomycin MIC
effect of the addition of DL-sodium lactate on the vancomycin MIC ([5]; DL-sodium lactate 0.025-[…]): The addition of DL-sodium lactate did not change the vancomycin
effect of the addition of DL-sodium lactate on the vancomycin MIC ([6]; DL-sodium lactate 0.025-[…]): The addition of DL-sodium lactate did not change the vancomycin
effect of the addition of DL-sodium lactate on the vancomycin MIC (Van A VRE [7]; DL-sodium lactate 0.025-[…], 5 strains): increased the vancomycin MIC or maintained the vancomycin MIC as high as more than 512 μg/ml
optimum concentration of addition of DL-sodium lactate (Van B VRE [8]; for increasing the vancomycin MIC): 0.2 mol/L
concentration of DL-sodium lactate at which the organisms tend to grow worse (Van B VRE [8]; growth worse in line with the added amount): more than 0.4 mol/l
